# Assay results: patent US11168080B2, “Dynamin-1-like protein inhibitors” (Mitobridge, Inc., priority 2017, dated 2021)
# pIC50: −log10 of the molar value.
# Biological target: Drp1 (Homo sapiens (Human), UniProt O00429)
# Assay: Drp1 Activity Screen: colorimetric (malachite green) GTPase assay
# Format: biochemical
# Details: 1 mM GTP, 20 min at 37° C.; for pIC50: GTPase activity, 0.6 μM Drp1 preincubated with 0.1 mg/mL liposomes; for max % inh: max % inhibition of Drp1 GTPase activity, 0.6 μM Drp1, 0.1 mg/mL liposomes
# Procedure: The GTPase activity of Drp1 was assayed using a colorimetric assay similar to as described previously by Leonard M. et al. “Robust colorimetric assays for dynamin's basal and stimulated GTPase activities.” Methods Enzymol. […] Briefly, for GTPase assays of purified Drp1 inhibitor samples, 0.6 μM Drp1 preincubated with 0.1 mg/mL liposomes (consisting of 80% soybean lipids/20% cardiolipin) and inhibitor was added to 1 mM GTP in a microtiter plate for 20 min at 37° C. in 4 mM MgCl2, 10 mM Hepes (pH 7.0), 100 mM KCl, 1 mM DTT. Reactions were stopped by diluting with 0.5 mM EDTA. Samples were then incubated with malachite green reagent (1 mM malachite green and 50 mM ammonium molybdate in 1 N HCl), and the absorbance at 650 nm was measured. The reaction rates, IC50 values, and max % inhibition were determined using Excel/GraphPad Prism software.
# Sequence of Drp1 (O00429 whole entry): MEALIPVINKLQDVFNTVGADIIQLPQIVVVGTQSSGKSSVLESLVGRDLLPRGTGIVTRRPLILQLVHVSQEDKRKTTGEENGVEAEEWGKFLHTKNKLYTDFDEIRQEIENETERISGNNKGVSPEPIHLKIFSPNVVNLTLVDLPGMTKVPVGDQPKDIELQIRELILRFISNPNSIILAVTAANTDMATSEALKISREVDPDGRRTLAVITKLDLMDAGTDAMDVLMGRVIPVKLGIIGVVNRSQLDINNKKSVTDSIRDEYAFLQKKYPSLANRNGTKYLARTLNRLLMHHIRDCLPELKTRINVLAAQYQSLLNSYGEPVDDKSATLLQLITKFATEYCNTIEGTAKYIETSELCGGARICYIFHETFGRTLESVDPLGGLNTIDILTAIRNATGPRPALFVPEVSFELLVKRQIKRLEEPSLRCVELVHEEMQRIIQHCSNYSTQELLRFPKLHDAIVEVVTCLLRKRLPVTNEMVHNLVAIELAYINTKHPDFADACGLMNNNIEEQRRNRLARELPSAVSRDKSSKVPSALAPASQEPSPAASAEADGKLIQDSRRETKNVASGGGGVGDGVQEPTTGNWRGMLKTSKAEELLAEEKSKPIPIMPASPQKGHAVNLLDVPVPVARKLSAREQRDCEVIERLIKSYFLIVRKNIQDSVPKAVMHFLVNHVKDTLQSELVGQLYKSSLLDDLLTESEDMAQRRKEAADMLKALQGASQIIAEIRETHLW
Structure (SMILES),pIC50,max % inh
"Cc1cc(C(=O)Nc2ccncc2)n(Cc2csc(N3CCCCC3)n2)c1 [Compound A-32, 4-methyl-1-((2-(piperidin-1-yl)thiazol-4-yl)methyl)-N-(pyridin-4-yl)-1H-pyrrole-2-carboxamide]",4.99,–
"Cc1cc(C(=O)Nc2ccc(I)cc2)n(Cc2csc(N3CCCCC3)n2)c1 [Compound A-33, N-(4-iodophenyl)-4-methyl-1-((2-(piperidin-1-yl)thiazol-4-yl)methyl)-1H-pyrrole-2-carboxamide]",5.35,34%
"Cc1cc(C(=O)NC2COc3ccccc3C2)n(Cc2csc(N3CCCCC3)n2)c1 (stereo not shown) [Compound A-34, N-(chroman-3-yl)-4-methyl-1-((2-(piperidin-1-yl)thiazol-4-yl)methyl)-1H-pyrrole-2-carboxamide]",5.05,–
"Cc1cc(C(=O)Nc2ccc(-c3cccnc3)cc2)n(Cc2csc(N3CCCCC3)n2)c1 [Compound A-35, 4-methyl-1-((2-(piperidin-1-yl)thiazol-4-yl)methyl)-N-(4-(pyridin-3-yl)phenyl)-1H-pyrrole-2-carboxamide]",5.92,–
"Cc1cc(C(=O)Nc2ccc(-c3c(C)noc3C)cc2)n(Cc2csc(N3CCCCC3)n2)c1 [Compound A-36, N-(4-(3,5-dimethylisoxazol-4-yl)phenyl)-4-methyl-1-((2-(piperidin-1-yl)thiazol-4-yl)methyl)-1H-pyrrole-2-carboxamide]",5.85,–
"Cc1cc(C(=O)Nc2ccc(-c3cn[nH]c3)cc2)n(Cc2csc(N3CCCCC3)n2)c1 [Compound A-37, N-(4-(1H-pyrazol-4-yl)phenyl)-4-methyl-1-((2-(piperidin-1-yl)thiazol-4-yl)methyl)-1H-pyrrole-2-carboxamide]",5.92,–
"Cc1cc(C(=O)Nc2ccc(-c3ccoc3)cc2)n(Cc2csc(N3CCCCC3)n2)c1 [Compound A-38, N-(4-(furan-3-yl)phenyl)-4-methyl-1-((2-(piperidin-1-yl)thiazol-4-yl)methyl)-1H-pyrrole-2-carboxamide]",5.92,–
"Cc1ccc(C(=O)Nc2ccccc2)n1Cc1csc(N2CCCCC2)n1 [Compound A-39, 5-methyl-N-phenyl-1-((2-(piperidin-1-yl)thiazol-4-yl)methyl)-1H-pyrrole-2-carboxamide]",4.44,26%
"Cc1cc(C(=O)Nc2ccc3c(c2)CC(=O)N3)n(Cc2csc(N3CCCCC3)n2)c1 [Compound A-41, 4-methyl-N-(2-oxoindolin-5-yl)-1-((2-(piperidin-1-yl)thiazol-4-yl)methyl)-1H-pyrrole-2-carboxamide]",5.38,–
"Cc1cc(C(=O)Nc2ccc(N3CCNC3=O)cc2)n(Cc2csc(N3CCCCC3)n2)c1 [Compound A-43, 4-methyl-N-(4-(2-oxoimidazolidin-1-yl)phenyl)-1-((2-(piperidin-1-yl)thiazol-4-yl)methyl)-1H-pyrrole-2-carboxamide]",5.37,–
"Nc1cc(C(=O)Nc2ccc(C(=O)O)cc2)n(Cc2csc(N3CCCCC3)n2)c1 [Compound A-53, 4-(4-Amino-1-((2-(piperidin-1-yl)thiazol-4-yl)methyl)-1H-pyrrole-2-carboxamido)benzoic acid]",< 4.00,–
"Cc1cc(C(=O)Nc2ccc(C(=O)O)cc2C)n(Cc2csc(N3CCCCC3)n2)c1 [Compound A-54, 3-Methyl-4-(4-methyl-1-((2-(piperidin-1-yl)thiazol-4-yl)methyl)-1H-pyrrole-2-carboxamido)benzoic acid]",< 4.00,–
"CC(=O)c1cc(C(=O)Nc2ccc(C(=O)O)cc2)n(Cc2csc(N3CCCCC3)n2)c1 [Compound A-56, 4-(4-acetyl-1-((2-(piperidin-1-yl)thiazol-4-yl)methyl)-1H-pyrrole-2-carboxamido)benzoic Acid]",< 4.00,–
"Cc1cc(C(=O)Nc2ccc(C(=O)O)c(F)c2)n(Cc2csc(N3CCCCC3)n2)c1 [Compound A-57, 2-fluoro-4-(4-methyl-1-((2-(piperidin-1-yl)thiazol-4-yl)methyl)-1H-pyrrole-2-carboxamido)benzoic Acid]",5.55,–
"O=C(Nc1ccc(-c2nn[nH]n2)cc1)c1cc(-c2ccccc2)cn1Cc1csc(N2CCCCC2)n1 [Compound A-58, N-(4-(1H-tetrazol-5-yl)phenyl)-4-phenyl-1-((2-(piperidin-1-yl)thiazol-4-yl)methyl)-1H-pyrrole-2-carboxamide]",5.66,–
"Cc1cc(C(=O)Nc2ccc(C(=O)O)c(C)c2)n(Cc2csc(N3CCCCC3)n2)c1 [Compound A-61, 2-methyl-4-(4-methyl-1-((2-(piperidin-1-yl)thiazol-4-yl)methyl)-1H-pyrrole-2-carboxamido)benzoic Acid]",5.60,–
"Cc1cc(C(=O)Nc2ccc(C(=O)O)nc2)n(Cc2csc(N3CCCCC3)n2)c1 [Compound A-62, 5-(4-methyl-1-((2-(piperidin-1-yl)thiazol-4-yl)methyl)-1H-pyrrole-2-carboxamido)picolinic Acid]",4.77,–
"O=C(Nc1ccc(CO)cc1)c1cc(Br)cn1Cc1csc(N2CCCCC2)n1 [Compound A-63, 4-bromo-N-(4-(hydroxymethyl)phenyl)-1-((2-(piperidin-1-yl)thiazol-4-yl)methyl)-1H-pyrrole-2-carboxamide]",5.47,68%
"Cc1cc(C(=O)Nc2ccc(C(=O)O)cc2F)n(Cc2csc(N3CCCCC3)n2)c1 [Compound A-66, 3-fluoro-4-(4-methyl-1-((2-(piperidin-1-yl)thiazol-4-yl)methyl)-1H-pyrrole-2-carboxamido)benzoic Acid]",5.11,–
"Cc1cc(C(=O)Nc2ccc(-c3nn[nH]n3)cc2)n(Cc2cccc(N3CCCCC3)n2)c1 [Compound A-67, N-(4-(1H-tetrazol-5-yl)phenyl)-4-methyl-1-((6-(piperidin-1-yl)pyridin-2-yl)methyl)-1H-pyrrole-2-carboxamide]",5.68,–
"Cc1cn(Cc2csc(N3CCCCC3)n2)c(C(=O)Nc2ccc(C(=O)O)cc2)c1C [Compound A-68, 4-(3,4-dimethyl-1-((2-(piperidin-1-yl)thiazol-4-yl)methyl)-1H-pyrrole-2-carboxamido)benzoic acid]",4.52,–
"Cc1cc(Cn2cc(C)cc2C(=O)Nc2ccc(C(=O)O)cc2)nc(N2CCCCC2)c1 [Compound A-69, 4-(4-methyl-1-((4-methyl-6-(piperidin-1-yl)pyridin-2-yl)methyl)-1H-pyrrole-2-carboxamido)benzoic Acid]",4.93,–
"O=C(O)c1ccc(NC(=O)c2cc(Cl)cn2Cc2csc(N3CCCCC3)n2)cc1 [Compound A-70, 4-(4-chloro-1-((2-(piperidin-1-yl)thiazol-4-yl)methyl)-1H-pyrrole-2-carboxamido)benzoic Acid]",5.64,–
"Cc1cc(C(=O)Nc2ccc(-c3ccc(C(=O)O)cc3)cc2)n(Cc2csc(N3CCCCC3)n2)c1 [Compound A-71, 4′-(4-methyl-1-((2-(piperidin-1-yl)thiazol-4-yl)methyl)-1H-pyrrole-2-carboxamido)-[1,1′-biphenyl]-4-carboxylic Acid]",6.14,83%
